# Reference: US12459891B2, “1-[1-(4-benzyloxy-3,5-difluoro-benzoyl)-4-fluoro-pyrrolidine-2-carbonyl]-pyrrolidine-2-carbonitrile” (ACCURE THERAPEUTICS, S.L., priority 2020, dated 2025)
# What was measured:
# [1] = Parallel artificial membrane permeability assay (PAMPA), BBB passive diffusion; type: in vitro ADME; conditions: pH 7.4, 4 hours; for % R (compound retention of the phospholipid membrane), PAMPA / % T (percentage of transport), PAMPA: 200 μM; for Papp at 4 h, 200 μM: pig, PAMPA, room temperature, read-out: Effective permeability Pe
# Description: Parallel artificial membrane permeability assay (PAMPA) described in Kansy M et al., J. Med. Chem. 1998; 41(7):1007-10 was used to determine the capacity of compounds to cross the Blood-Brain Barrier (BBB) by passive diffusion (Di L et al., Eur. J. Med. Chem. 2003; 38(3):223-32). The effective permeability (Pe) of the compounds was measured at an initial concentration of 200 μM. The buffer solution was prepared from a commercial concentrated one following the manufacturer's instructions. pH was adjusted to 7.4 using a 0.5 M NaOH solution. A stock solution of new compound was prepared in DMSO and diluted with buffer solution to a final 200 μM concentration (0.5% DMSO content). The PAMPA sandwich was separated and each donor well was filled with 200 μL of the compound solution. The acceptor plate was placed into the donor plate, ensuring that the underside of the membrane was in contact with buffer. 4 μL of the mixture of phospholipids (20 mg/mL) in dodecane was added to the filter of each well, and 200 μL of buffer solution was added to the each acceptor well. The plate was covered and incubated at room temperature in a saturated humidity atmosphere for 4 hours under orbital agitation at 100 rpm. After 4 hours, the contents of the acceptor and donor compartments were analyzed by HPLC: 150 μL of each well from the donor plate and 150 μL of each well from the acceptor plate were transferred to HPLC vials, injecting each sample into a reverse-phase C18 column (150 mm×4.6 mm×5 μm, 100 Å) (100 μL/injection from the acceptor wells, 10 μL/injection from the donor wells and for t0 references). Transport was also confirmed by MALDI-TOF spectrometry.
# The phospholipid mixture used was a porcine polar brain lipid extract, provided by Avanti polar lipids, with the following composition: 12.6% phosphatidylcholine (PC), 33.1% phosphatidylethanolamine (PE), 18.5% phosphatidylserine (PS), 4.1% phosphatidylinositol (PI), 0.8% phosphatidic acid and 30.9% of other compounds.
# The effective permeability (Pe) after 4 hours was calculated using equation 2, the percentage of transport (T %) was calculated using equation 3 and the compound retention (R %) of the phospholipid membrane using equation 4:
# [formula] [formula] [formula] wherein: • t is time (h) • CA(t) is the compound concentration in the acceptor well at time t, CD(t) is the compound concentration in donor well at time t • and CD(t0) is the compound concentration in the donor well at t0.
# [2] = PK in mice after intravenous bolus; type: in vivo; conditions: male, Swiss Albino, mouse, plasma, 1 mg/kg intravenous bolus; for Vd: read-out: Vss
# Description: The pharmacokinetics of the compounds following intravenous bolus administration was conducted in male Swiss Albino mice. The study was conducted in accordance with the guidelines of the Institutional Animal Ethics Committee (IAEC) and in accordance with the requirements of Committee for the Purpose of Control and Supervision of Experiments on Animals (CPCSEA), India.
# Study was conducted in 12 mice per compound using sparse sampling design (n=3/time point) to produce composite profile. The compounds were dissolved in 2% Twee80® in saline (0.9 NaCl) at a concentration of 0.5 mg/mL. Mice were administered a single dose of 1 mg/kg of the compound solution by intravenous bolus through lateral tail vein using 1 mL BD syringe guided with 26G needle at a dose volume of 2 mL/kg.
# Blood samples were collected (n=3 per time point) at 0.083, 0.25, 0.5, 1, 2, 4, 6, 8, 24 and 48 h post-dose. At each time point, 120 μL of blood was collected by retro orbital plexus puncture and transferred into a labeled microfuge tube containing 200 mM K2EDTA solution (20 μL per mL of blood). The blood samples were centrifuged at 5000×g for 5 min at 4±2° C. Plasma samples were stored below −60° C. until bioanalysis.
# Plasma samples were analyzed using a LC-MS/MS method with LLOQ of 1.06 ng/mL. Pharmacokinetic parameters in plasma were calculated using the non-compartmental analysis tool of the validated Phoenix WinNonlin® software (version 6.3). The area under the concentration time curve (AUClast) was calculated by linear trapezoidal rule. Peak plasma concentration (Cmax) and time to reach the peak plasma concentration (Tmax) were the observed values. Clearance (CL) and volume of distribution (Vss) were predicted values.
# [3] = Microsomal stability (rat); type: in vitro ADME; conditions: Sprague-Dawley, pooled liver microsomes, pH 7.4; rat liver microsomes 0.5 mg/mL, 1 μM compound, 37° C., NADPH regenerating system
# Description: The stability of the compounds in rat (Sprague-Dawley) pooled liver microsomes (catalog number 452501) was investigated according to the instructions provided by the vendor (BD Bioscience). A stock solution (500 μM) of the compound to be tested was prepared in DMSO. Two μL of the compounds were incubated at 1 μM final concentration in a mixture of: • 713 μL of H2O • 200 μL of 0.5 M potassium phosphate (pH 7.4) • 50 μL of NADPH regenerating system solution A (BD Bioscience, catalog number 451220) • 10 μL of NADPH regenerating system solution B (BD Bioscience, catalog number 451200)
# The resulting mixture was warmed to 37° C. for 5 min. After which, 25 μL of liver microsomes were added at a final concentration of 0.5 mg/mL. The mixture was incubated at 37° C. with orbital agitation (100 rpm). At selected time points, 100 μL aliquots were extracted and mixed with 100 μL of acetonitrile. The obtained precipitate was shake in a vortex for 1 minute. Samples were kept at 4° C. for 30 min, after which, samples were centrifuged at 20,000×g at 4° C. for 30 min. The supernatant was filtered out and subsequently analysed by UPLC-MS. All stability tests were performed in duplicates.
"% R (compound retention of the phospholipid membrane), PAMPA [1]","% T (percentage of transport), PAMPA [1]","Papp at 4 h, 200 μM [1]",AUC(0-t) [2],clearance [2],Vd [2],half-life at 1 μM [3],SMILES
24%,18.1%,4.7 ×10⁻⁶ cm/s,127 ng·h/mL,99.6 mL/min/kg,1.19 L/kg,12 min,"N#C[C@@H]1CCCN1C(=O)[C@@H]1C[C@@H](F)CN1C(=O)c1cc(F)c(OCc2ccccc2)c(F)c1 [Example 1, (S)-1-((2S,4R)-1-(4-(benzyloxy)-3,5-difluorobenzoyl)-4-fluoropyrrolidine-2-carbonyl)pyrrolidine-2-carbonitrile]"
–,10.43%,–,22.7 ng·h/mL,697 mL/min/kg,9.06 L/kg,< 5 min,"N#C[C@@H]1CCCN1C(=O)[C@@H]1CC(F)(F)CN1C(=O)c1ccc(OCc2ccccc2)c(F)c1 [Comp Ex. 4, (S)-1-((S)-1-(4-(benzyloxy)-3-fluorobenzoyl)-4,4-difluoropyrrolidine-2-carbonyl) pyrrolidine-2-carbonitrile]"
10.93%,29.92%,22.1 ×10⁻⁶ cm/s,131 ng·h/mL,126 mL/min/kg,0.64 L/kg,< 5 min,"COc1cc(C(=O)N2CC(F)(F)C[C@H]2C(=O)N2CCC[C@H]2C#N)cc(OC)c1OCc1ccccc1 [Comp Ex. 3, (S)-1-((2S)-1-(4-(benzyloxy)-3,5-dimethoxybenzoyl)-4,4-difluoropyrrolidine-2-carbonyl)pyrrolidine-2-carbonitrile]"
